From ChEMBL document CHEMBL1821710, “Synthesis and antiproliferative evaluation of 3,5-disubstituted 1,2,4-triazoles containing flurophenyl and trifluoromethanephenyl moieties” (2011) come the findings set out here.

As a reminder, the GI50 is the concentration at which growth is held to half of that of the control. A low value points to greater sensitivity of the cells.

Format in all cases: functional
A short description of experiment [1]: Growth inhibition of human NPC-TW01 cells after 72 hrs by MTT assay. The note with it: NPC-TW01, 72 h.
Another experiment deals with Jurkat. As to the kind of experiment: Growth inhibition of human Jurkat cells after 72 hrs by MTT assay. On the technique in general: Tetrazolium dyes change colour on reduction, which living cells bring about.
The next experiment deals with NCI-H226. As to the kind of experiment: Growth inhibition of human NCI-H226 cells after 72 hrs by MTT assay. The settings on record: NCI-H226, 72 h.

In the case of `COC(=O)c1nc(C)n(-c2ccccc2)n1`, the GI50 (in experiment [1]; with Jurkat; in the experiment with NCI-H226) was over 100 µM throughout.
Take `COC(=O)c1nc(C)n(-c2ccccc2C(F)(F)F)n1`: the GI50 in experiment [1] is over 100 µM; in the experiment with Jurkat it was over 100 µM; in the experiment on NCI-H226, 6.13 µM.
As for `COC(=O)c1nc(C)n(-c2cccc(Br)c2)n1`, the GI50 in experiment [1] was over 100 µM; in the experiment with Jurkat it was over 100 µM; in the experiment with NCI-H226 it was 7.35 µM.
Regarding `COC(=O)c1nc(C)n(-c2cccc(C(F)(F)F)c2)n1`, the figures for the GI50 (in experiment [1]; in the experiment with Jurkat; with NCI-H226) were over 100 µM, 10.6 µM and 14.3 µM, respectively.
The like results for `COC(=O)c1nc(C)n(-c2ccc(C(F)(F)F)cc2)n1` were, in that order, over 100 µM, 9.1 µM and 16.6 µM.
On to `COC(=O)c1nc(C)n(-c2ccc(OC)cc2)n1`, for which the GI50 in experiment [1] is 9.92 µM; in the experiment on Jurkat, over 100 µM; with NCI-H226, over 100 µM.
Regarding `COC(=O)c1nc(C)n(-c2ccc(Cl)cc2)n1`, the figures for the GI50 (in experiment [1]; in the experiment with Jurkat; with NCI-H226) were 17.5 µM, 65.9 µM and 84 µM, respectively.
Consider `COC(=O)c1nc(C)n(-c2ccc(F)cc2)n1`, for which the figures for the GI50 (in experiment [1]; in the experiment with Jurkat; with NCI-H226) were 15.2 µM, 8.7 µM and 11.7 µM, respectively.
Consider `CCc1nc(C(=O)OC)nn1-c1ccc(F)cc1`, for which the figures for the GI50 (in experiment [1]; with Jurkat; in the experiment with NCI-H226) were 15.8 µM, 11 µM and 71.3 µM, respectively.
On to `COC(=O)c1nc(C(C)C)n(-c2ccc(F)cc2)n1`, for which the GI50 in experiment [1] is over 100 µM; in the experiment on Jurkat, over 100 µM; in the experiment with NCI-H226, 6.17 µM.
Turning to `CCCCc1nc(C(=O)OC)nn1-c1ccc(F)cc1`, the GI50 in experiment [1] is over 100 µM; in the experiment on Jurkat, over 100 µM; in the experiment on NCI-H226 it was 6.4 µM.
Consider `COC(=O)c1nc(C2CC2)n(-c2ccc(F)cc2)n1`, for which the GI50 in experiment [1] was 95.9 µM; with Jurkat, 9.42 µM; with NCI-H226 it was 16.3 µM.
Turning to `COC(=O)c1nc(C2CCCC2)n(-c2ccc(F)cc2)n1`, the GI50 in experiment [1] stood at 10.4 µM; with Jurkat it was 9.55 µM; in the experiment with NCI-H226 it was 70.5 µM.
With `COC(=O)c1nc(C2CCCCC2)n(-c2ccc(F)cc2)n1`, the results for the GI50 (in experiment [1]; in the experiment with Jurkat; with NCI-H226) were 30.5 µM, over 100 µM and 6.26 µM, respectively.
The like results for `COC(=O)c1nc(-c2ccoc2)n(-c2ccc(F)cc2)n1` were, in that order, 11.7 µM, 9.32 µM and 91.6 µM.
On the same counts, the results for `COC(=O)c1nc(-c2ccsc2)n(-c2ccc(F)cc2)n1` are 10.7 µM, 54 µM and 6.94 µM.
As for `COC(=O)c1nc(-c2ccc[nH]2)n(-c2ccc(F)cc2)n1`, the GI50 in experiment [1] was 9.58 µM; in the experiment on Jurkat it was 9.01 µM; in the experiment with NCI-H226 it was 72 µM.
As for `COC(=O)c1nc(-c2ccccc2)n(-c2ccc(F)cc2)n1`, the GI50 stood at 15.6 µM in experiment [1], 10 µM in the experiment on Jurkat and 89.3 µM with NCI-H226.
In the case of `COC(=O)c1nc(-c2ccc3ccccc3c2)n(-c2ccc(F)cc2)n1`, the GI50 in experiment [1] was over 100 µM; in the experiment with Jurkat, 18.5 µM; in the experiment with NCI-H226, 79.3 µM.
The like results for `COC(=O)c1nc(C2CCCC2)n(-c2ccc(C(F)(F)F)cc2)n1` were, in that order, 56.4 µM, over 100 µM and 5.71 µM.
With `COC(=O)c1nc(C2CCCCC2)n(-c2ccc(C(F)(F)F)cc2)n1`, the GI50 in experiment [1] is over 100 µM; in the experiment with Jurkat, over 100 µM; with NCI-H226 it was 5.76 µM.
Turning to `COC(=O)c1nc(-c2ccoc2)n(-c2ccc(C(F)(F)F)cc2)n1`, the GI50 was over 100 µM in experiment [1], 97.2 µM in the experiment on Jurkat and 6.01 µM in the experiment on NCI-H226.
Turning to `COC(=O)c1nc(-c2ccsc2)n(-c2ccc(C(F)(F)F)cc2)n1`, the figures for the GI50 (in experiment [1]; in the experiment on Jurkat; in the experiment with NCI-H226) were 34.9 µM, over 100 µM and 5.74 µM, respectively.
For the molecule `COC(=O)c1nc(-c2ccc[nH]2)n(-c2ccc(C(F)(F)F)cc2)n1`, the GI50 was over 100 µM in experiment [1], over 100 µM with Jurkat and 5.65 µM in the experiment on NCI-H226.
As to `CCOC(=O)c1nc(-c2ccc[nH]2)n(-c2ccc(C(F)(F)F)cc2)n1`, the GI50 was 76.4 µM in experiment [1], over 100 µM with Jurkat and 5.61 µM in the experiment with NCI-H226.
As for `CCOC(=O)c1nc(-c2ccc[nH]2)n(-c2ccc(F)cc2)n1`, the GI50 in experiment [1] was 64.3 µM; with Jurkat it was over 100 µM; in the experiment with NCI-H226, 5.71 µM.
For the molecule `CN(Cc1cnc2nc(N)nc(N)c2n1)c1ccc(C(=O)N[C@@H](CCC(=O)O)C(=O)O)cc1` [METHOTREXATE], the GI50 was determined as 0.1 µM in experiment [1], 1.25 µM in the experiment with Jurkat and 10.2 µM in the experiment on NCI-H226.
